Here are results for twelve molecules from patent US6911330B1, “Recombinant secoisolariciciresinol dehydrogensase, and methods of use” (Washington State University Research Foundation, priority 1998, dated 2005).

For data set [1], the target named is T1, pinoresinol/lariciresinol reductase (Forsythia intermedia, UniProt P93143).
T1 construct: host or cells: E. coli, pSBETa vector
T1 sequence (P93143 1-312): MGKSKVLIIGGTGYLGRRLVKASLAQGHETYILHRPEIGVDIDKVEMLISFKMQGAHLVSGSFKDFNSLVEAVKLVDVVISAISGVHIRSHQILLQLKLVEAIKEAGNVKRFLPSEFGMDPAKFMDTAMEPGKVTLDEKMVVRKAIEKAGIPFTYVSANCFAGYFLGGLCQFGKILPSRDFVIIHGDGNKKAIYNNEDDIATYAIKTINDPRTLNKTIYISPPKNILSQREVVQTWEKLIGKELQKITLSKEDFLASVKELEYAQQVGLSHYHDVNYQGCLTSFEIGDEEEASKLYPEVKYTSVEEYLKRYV
The conditions noted are these: incubation with (±)-pinoresinols in presence of NADPH; cited from earlier work.

In data set [2] the test system is HIV-1. The conditions noted are these: cited from earlier work.
For data set [3], the target named is HIV reverse transcriptase (Human immunodeficiency virus type 1 group M subtype B, UniProt P04585). The conditions noted are these: cited from earlier work.
For data set [4], the target named is T2, secoisolariciresinol dehydrogenase (Forsythia intermedia, UniProt Q94KL7, F122L/G175A/I11F).
T2 construct: The dehydrogenase coding region was also excised using the Nde I sites at the 5′ and 3′ ends and cloned into the SBET vector; made in house; host or cells: E. coli B834(DE3), SBET vector
The data set is described as follows: Dehydrogenase activity of recombinant enzyme expressed in E. coli. Format: biochemical. The note with it: crude supernate of E. coli expressing DEHY133. As to the method:
(§1) Secoisolarciresinol dehydrogenase activity was assayed by monitoring the formation of (−)-[9′-^3H2]matairesinol. Each assay consisted of NAD (50 mM in 0.1 M potassium phosphate buffer, pH 7, 5 μl), (±)-[9,9′-^3H2]secoisolariciresinols (28 nM, 130 MBq/mmol in ethanol, 5 μl) and buffer (50 mM Tris-HCl, pH 8.8, 470 μl ). The enzymatic reaction was initiated by addition of the enzyme preparation (20 μl). After 1 h incubation at 30° C. with shaking, the mixture was extracted with EtOAc (500 μl ×2) containing unlabelled (±)-matairesinols (200 μg) as radiochemical carriers. After centrifugation (13,800×g, 5 min) the EtOAc solubles were removed, evaporated to dryness in vacuo, reconstituted in MeOH:3% acetic acid in H2O (1:1, 200 μl), and an aliquot (20 μl) subjected to reversed-phase column chromatography. The elution conditions were as follows: linear gradient acetonitrile/3% acetic acid in H2O from 10:90 to 30:70 between 0 and 35 min; then to 5:95 in 5 min and finally isocratic at 5:95 for 5 min, at a flow rate of 1 ml min^−1, and detection at 280 nm. Fractions corresponding to matairesinol were individually collected, aliquots removed for liquid scintillation counting, and the remainder freeze-dried.
(§2) [9′-^3H2]Matairesinol (0.5 kBq), collected after reversed-phase column chromatography, was reduced with LiAlH4 to give [9′-^3H2]secoisolariciresinol (0.26 kBq).
(§3) The E. coli culture containing the dehydrogenase clone was grown at 37° C. in 25 ml of SOC Kn50 medium to an O.D. of 0.5. To this was added IPTG to give a final concentration of 0.5 mM and the culture was grown at 18° C. for an additional 20 h. The cells were pelleted at 600×g 4° C. 12 min, resuspended in 5 ml of 20 mM Tris-HCl pH 8.0, 5 mM DTT buffer and repelleted. The final bacterial pellet was resuspended in 200 μL of the above buffer and sonicated 4×15 sec using a Braun-Sonic 2000 sonicator set at maximal output of −0.64. The sample was then centrifuged 20,800 ×g 4° C. 15 min and the crude supernate was assayed for dehydrogenase activity. […] The clone SMDEHY631 (SEQ ID NO:9) was also expressed in E. coli in the foregoing manner.

In data set [5] the test system is cAMP-phosphodiesterase. The conditions noted are these: cited from earlier work.
In data set [6] the target is T3, secoisolariciresinol dehydrogenase (Forsythia intermedia, UniProt Q94KL7).
T3 construct: The dehydrogenase coding region was also excised using the Nde I sites at the 5′ and 3′ ends and cloned into the SBET vector; made in house; host or cells: E. coli B834(DE3), SBET vector
The data set is described as follows: Dehydrogenase activity of recombinant enzyme expressed in E. coli. Type of data set: biochemical. The note with it: protein produced in E. coli. As to the method:
as §1, §2, §3

For `COc1cc(C[C@H]2CO[C@H](c3ccc(O)c(OC)c3)[C@H]2CO)ccc1O` [(+)-lariciresinol], the “served as substrate of recombinant pinoresinol/lariciresinol reductase” value in data set [1] is “served as substrates”. As to (−)-trachelogenin, the “inhibition of in vitro replication of HIV-1” value in data set [2] is listed as “inhibits”. Also, the “effectiveness against HIV due to reverse transcriptase inhibitory activity” value in data set [3] is listed as “effective against HIV”. For the molecule (−)-secoisolariciresinol, in data set [4], the “conversion as substrate into (−)-lactol and (−)-matairesinol” value is “catalyzed the conversion”. Take `COc1cc(C[C@H]2C(=O)OC[C@@H]2Cc2ccc(OC)c(OC)c2)ccc1O` [(−)-arctigenin]: the “effectiveness against HIV due to reverse transcriptase inhibitory activity” value in data set [3] was “effective against HIV”. Regarding `COc1cc(C[C@H]2COC(=O)[C@@H]2Cc2ccc(O)c(OC)c2)ccc1O` [matairesinol], the “inhibition of cAMP-phosphodiesterase” value in data set [5] was “inhibit”. On to `COc1cc(C2OCC3C(c4ccc(O)c(OC)c4)OCC23)ccc1O` (single isomer, unassigned; (+)) [(+)-pinoresinol], for which the “served as substrate of recombinant pinoresinol/lariciresinol reductase” value in data set [1] was “served as substrates”. Consider (−)-pinoresinol, for which the “served as substrate of recombinant pinoresinol/lariciresinol reductase” value in data set [1] is reported as “not”.

Consider `CC(Cc1ccc(O)c(O)c1)C(C)Cc1ccc(O)c(O)c1` (stereo not shown) [nordihydroguaiaretic acid], for which the “effectiveness against HIV due to reverse transcriptase inhibitory activity” value in data set [3] is listed as “effective against HIV”. As for “(+)-secoisolariciresinol [(+)-antipode of secoisolariciresinol]”, the “conversion as substrate into (−)-lactol and (−)-matairesinol” value in data set [4] is reported as “did not serve as a substrate”.

B1: SMDEHY133: protein (SEQ ID NO:2) encoded by engineered cDNA clone DEHY133 (SEQ ID NO:1) (protein)
chain: MQLRTAFARRLEGKVALITGGASGIGETTAKLFSQHGAKVAIADVQDELGHSVVEAIGTSNSTYIHCDVTNEDGVKNAVDNTVSTYGKLDIMFSNAGISDPNRPRIIDNEKADFERVLSVNVTGVFLCMKHAARVMIPARSGNIISTASLSSTMGGGSSHAYCGSKHAVLALTRNLAVELGQFGIRVNCLSPFGLPTALGKKFSGIKNEEEFENVINFAGNLKGPKFNVEDVANAALYLASDEAKYVSGHNLFIDGGFSVCNSVIKVFQYPDS
modifications: Forsythia x intermedia
As to B1, the “catalysis of conversion of (−)-secoisolariciresinol into (−)-matairesinol by protein of the clone” value (shortened to “catalysis”) in data set [6] is recorded as “catalyzed the stereochemical conversion”.

B2: SMDEHY631: protein (SEQ ID NO:10) encoded by cDNA clone SEQ ID NO:9 (protein)
chain: MATSQLRTAFARRLEGKVALITGGASGVGEVTAKLFSQHGAKVAIADVQDELGHSVVEAIGLSNSTYIHCDVTNEDGVKNAVDNTVSTYGKLDIMFNNAGISDPYKPRVIDNEKADFERVLSVNVTGVFLFMKHAARIMVPARSGCIISTASLSSTMGGGSSHAYCGSKHAVLGLTRNLAVELGQFGIRVNCLSPFGLPTPLAKKFTGIENDEDLANGIERAGNLKGTKLRIEDVANAALFLASDEAQYVSGQNLFIDGGFSVCNSAIKLFQYPDS
modifications: Forsythia x intermedia
B2: the “catalysis” value in data set [6] is listed as “catalyzed the stereochemical conversion”.

B3: SMDEHY321: protein (SEQ ID NO:4) encoded by cDNA clone SEQ ID NO:3 (protein)
chain: MAATSQVLTAIARRLEGKVALITGGASGIGETTAKLFSQHGAKVAIADVQDELGHSVVEAIGTSNSTYIHCDVTNEDGVKNAVDNTVSTYGKLDIMFSNAGISDPNRPRIIDNEKADFERVFSVNVTGVFLCMKHAARVMIPARSGNIISTASLSSTMGGGSSHAYCGSKHAVLGLTRNLAVELGQFGIRVNCLSPFGLPTALGKKFSGIKNEEEFENVINFAGNLKGPKFNVEDVANAALYLASDEAKYVSGHNLFIDGGFSVCNSVIKVFQYPDS
modifications: Forsythia x intermedia
As to B3, in data set [6], the “catalysis” value was “catalyzed the stereochemical conversion”.
